Test system: tumor-bearing mice
Assay: In vivo anti-tumor therapeutic effect in tumor-bearing mice
Settings: day 25 compared to day 0 post-injection; intravenous, every 72 hours, 5 injections
Protocol: In vivo mice experiments were conducted to evaluate the anti-tumor therapeutic effects of PTX-loaded high (55K/SH-PTX; 39.6% drug loading) and low-drug loading formulations (55K/SH-PTX; 3.5% drug loading) in tumor-bearing mice. Four formulations (PBS, Free PTX, High DL NP, and Low DL NP_where DL is drug loading and NP is core-shell polymer nanoparticle) were injected intravenously every 72 hours for 5 injections in total. The body weight and tumor volume of the mice were monitored every two days. […] The weight increase was higher than the Low DL NP group (4.4% increase) and Free PTX group (2.9% increase).

In the case of `CC(=O)O[C@H]1C(=O)[C@@]2(C)[C@H]([C@H](OC(=O)c3ccccc3)[C@]3(O)C[C@H](OC(=O)[C@H](O)[C@@H](NC(=O)c4ccccc4)c4ccccc4)C(C)=C1C3(C)C)[C@]1(OC(C)=O)CO[C@@H]1C[C@@H]2O` [Free PTX, paclitaxel], the body weight increase was 2.9%.
